Test results taken from patent US11685732B2, “MYST family histone acetyltransferase inhibitors” (Epizyme, Inc., priority 2017, dated 2023).

target: KAT-6A (Homo sapiens (Human), UniProt Q92794); assay: KAT-6A biochemical inhibition assay (SAMDI mass spectrometry); details: not given
Method: (§1) KAT-6A. Enzyme assay buffer was 50 mM Tris pH 8.0, 0.002% Tween20, 0.005% bovine skin gelatin, and 1 mM dithiothreitol (DTT). For determination of IC50 values, compounds were serially diluted with 2% (v/v) DMSO in the final reaction, pre-incubating each dilution of each compound with 40 μL of assay buffer containing KAT-6A enzyme (12.5 nM final concentration). 10 μL of assay buffer containing 1 μM peptide substrate and 1 μM acetyl coenzyme A (final concentrations) was added. Reactions (50 μL total) were then carried out at 25° C. for 90 minutes. Reactions were terminated by the addition of 0.5% formic acid (final concentration), and a sample of each reaction was analyzed by SAMDI Tech, Inc. (Chicago, Ill.) using self-assembled monolayer desorption/ionization time-of-flight mass spectrometry (Mrksich, M. (2008) Mass spectrometry of self-assembled monolayers: a new tool for molecular surface science. ACS Nano 2, 7-18).

KAT-6A, sequence (Q92794 other isoform, or with tags, fused parts or gaps): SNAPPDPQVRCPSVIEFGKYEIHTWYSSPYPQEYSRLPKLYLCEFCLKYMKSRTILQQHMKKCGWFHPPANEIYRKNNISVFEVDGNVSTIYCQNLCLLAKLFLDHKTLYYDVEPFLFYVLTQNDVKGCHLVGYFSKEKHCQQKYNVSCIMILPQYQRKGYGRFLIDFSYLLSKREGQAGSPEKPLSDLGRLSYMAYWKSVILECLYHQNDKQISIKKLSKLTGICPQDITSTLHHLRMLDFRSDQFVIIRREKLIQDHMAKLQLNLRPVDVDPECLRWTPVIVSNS

SMILES	IC50
COc1cc(F)c(S(=O)(=O)NNC(=O)c2cc(-c3cn(C)cn3)cc(Cl)c2F)c(F)c1 [Compound I-421]	< 10 µM
CNCCOc1ccc(S(=O)(=O)NNC(=O)c2cc(-c3cn(C)cn3)cc(Cl)c2F)cc1 [Compound I-422]	> 100 µM
Cn1cnc(-c2cc(Cl)c(F)c(C(=O)NNS(=O)(=O)c3ccc(F)cc3F)c2)c1 [Compound I-423]	< 10 µM
CCN1CC(CS(=O)(=O)NNC(=O)c2cc(-c3cn(C)cn3)cc(Cl)c2F)CCC1=O (centres unmarked) [Compound I-424]	10 to 50 µM
CCN(C)C(=O)N(C)C1CC(CS(=O)(=O)NNC(=O)c2cc(-c3cn(C)cn3)cc(Cl)c2F)C1 (centres unmarked) [Compound I-425]	50 to 100 µM
COc1ccc(S(=O)(=O)NNC(=O)c2cc(-c3cn(C)cn3)cc(Cl)c2F)c(Cl)c1 [Compound I-426]	10 to 50 µM
Cn1cnc(-c2cc(Cl)c(F)c(C(=O)NNS(=O)(=O)C3CCC4CCC3C4)c2)c1 (centres unmarked) [Compound I-427]	10 to 50 µM
CCNC(=O)N(C)C1CC(CS(=O)(=O)NNC(=O)c2cc(-c3cn(C)cn3)cc(Cl)c2F)C1 (centres unmarked) [Compound I-428]	< 10 µM
Cn1cnc(-c2cc(Cl)c(F)c(C(=O)NNS(=O)(=O)c3cccc(O)c3)c2)c1 [Compound I-429]	< 10 µM
Cn1cnc(-c2cc(Cl)c(F)c(C(=O)NNS(=O)(=O)c3cccnc3O)c2)c1 [Compound I-430]	10 to 50 µM
Cn1cnc(-c2cc(Cl)c(F)c(C(=O)NNS(=O)(=O)CC3CCN(CC(F)(F)F)CC3)c2)c1 [Compound I-431]	10 to 50 µM
CN(C)CCOc1cccc(S(=O)(=O)NNC(=O)c2cc(-c3cn(C)cn3)cc(Cl)c2F)c1 [Compound I-432]	< 10 µM
CO[C@H]1CCCC[C@@H]1CS(=O)(=O)NNC(=O)c1cc(-c2cn(C)cn2)cc(Cl)c1F [Compound I-434]	< 10 µM
CO[C@@H]1CCCC[C@@H]1CS(=O)(=O)NNC(=O)c1cc(-c2cn(C)cn2)cc(Cl)c1F [Compound I-435]	< 10 µM
COCCc1cn(Cc2ccc(OC)cc2)cc1-c1cc(Cl)c(F)c(C(=O)NNS(=O)(=O)CC2CCOCC2)c1 [Compound I-436]	> 100 µM
Cn1cnc(-c2cc(Cl)c(F)c(C(=O)NNS(=O)(=O)CC3CCCN(CC(F)(F)F)C3)c2)c1 (centres unmarked) [Compound I-437]	10 to 50 µM
Cn1cnc(-c2cc(Cl)c(F)c(C(=O)NNS(=O)(=O)c3ccc(Cl)cc3F)c2)c1 [Compound I-438]	< 10 µM
CC(C)Oc1ccc(S(=O)(=O)NNC(=O)c2cc(-c3cn(C)cn3)cc(Cl)c2F)c(F)c1 [Compound I-439]	< 10 µM
COCCOc1ccc(S(=O)(=O)NNC(=O)c2cc(-c3cn(C)cn3)cc(Cl)c2F)c(F)c1 [Compound I-440]	< 10 µM
CCOc1ccc(S(=O)(=O)NNC(=O)c2cc(-c3cn(C)cn3)cc(Cl)c2F)c(F)c1 [Compound I-441]	< 10 µM
Cn1cnc(-c2cc(Cl)c(F)c(C(=O)NNS(=O)(=O)c3cccc(OCc4ccccc4)c3F)c2)c1 [Compound I-442]	< 10 µM
Cn1cnc(-c2cc(C(=O)NNS(=O)(=O)CC3CCCCC3)c(F)c(Cl)c2C#N)c1 [Compound I-443]	> 100 µM
Cn1cnc(-c2cc(Cl)c(F)c(C(=O)NNS(=O)(=O)c3cccc(O)c3F)c2)c1 [Compound I-444]	< 10 µM
Cn1cnc(-c2cc(Cl)c(F)c(C(=O)NNS(=O)(=O)C3CCN(CC(F)(F)F)CC3)c2)c1 [Compound I-445]	10 to 50 µM
CC([C@H]1CC[C@@H](NC(=O)OC(C)(C)C)CC1)S(=O)(=O)NNC(=O)c1cc(-c2cn(C)cn2)cc(Cl)c1F (some centres unmarked) [Compound I-446]	< 10 µM

SMILES	IC50
CC([C@H]1CC[C@H](NC(=O)OC(C)(C)C)CC1)S(=O)(=O)NNC(=O)c1cc(-c2cn(C)cn2)cc(Cl)c1F (some centres unmarked) [Compound I-447]	< 10 µM
CC([C@H]1CC[C@@H](N)CC1)S(=O)(=O)NNC(=O)c1cc(-c2cn(C)cn2)cc(Cl)c1F (some centres unmarked) [Compound I-448]	> 100 µM
CC([C@H]1CC[C@H](N)CC1)S(=O)(=O)NNC(=O)c1cc(-c2cn(C)cn2)cc(Cl)c1F (some centres unmarked) [Compound I-449]	> 100 µM
Cn1cnc(-c2cc(Cl)c(F)c(C(=O)NNS(=O)(=O)c3cc(OCc4ccccc4)ccc3F)c2)c1 [Compound I-450]	< 10 µM
COc1cc(F)c(S(=O)(=O)NNC(=O)c2cc(-c3cn(C)cn3)cc(Cl)c2F)cc1OCc1ccccc1 [Compound I-451]	10 to 50 µM
Cn1cnc(-c2cc(Cl)c(F)c(C(=O)NNS(=O)(=O)C3CCN(CC(F)(F)F)C3)c2)c1 (centres unmarked) [Compound I-452]	10 to 50 µM
Cn1cnc(-c2cc(Cl)c(F)c(C(=O)NNS(=O)(=O)c3cc(O)ccc3F)c2)c1 [Compound I-453]	< 10 µM
CCNC(=O)N[C@H]1CC[C@@H](C(C)S(=O)(=O)NNC(=O)c2cc(-c3cn(C)cn3)cc(Cl)c2F)CC1 (some centres unmarked) [Compound I-454]	< 10 µM
CCNC(=O)N[C@H]1CC[C@H](C(C)S(=O)(=O)NNC(=O)c2cc(-c3cn(C)cn3)cc(Cl)c2F)CC1 (some centres unmarked) [Compound I-455]	10 to 50 µM
Cn1cnc(-c2cc(Cl)c(F)c(C(=O)NNS(=O)(=O)C3CCCN(CC(F)(F)F)C3)c2)c1 (centres unmarked) [Compound I-456]	10 to 50 µM
COc1ccc(S(=O)(=O)NNC(=O)c2cc(-c3cn(C)cn3)cc(Cl)c2F)cc1OCc1ccccc1 [Compound I-457]	10 to 50 µM
COc1cc(F)c(S(=O)(=O)NNC(=O)c2cc(-c3cn(C)cn3)cc(Cl)c2F)cc1O [Compound I-458]	< 10 µM
COc1ccc(S(=O)(=O)NNC(=O)c2cc(-c3cn(C)cn3)cc(Cl)c2F)cc1O [Compound I-459]	< 10 µM
Cn1cnc(-c2cc(Cl)c(F)c(C(=O)NNS(=O)(=O)CC3CC3)c2)c1 [Compound I-460]	10 to 50 µM
COCCOC1CCCC(CS(=O)(=O)NNC(=O)c2cc(-c3cn(C)cn3)cc(Cl)c2F)C1 (centres unmarked) [Compound I-461]	< 10 µM
COc1ccc(S(=O)(=O)NNC(=O)c2cc(-c3cn(C)cn3)cc(Cl)c2F)c(F)c1OCc1ccccc1 [Compound I-462]	10 to 50 µM
COCCOC1CCC(CS(=O)(=O)NNC(=O)c2cc(-c3cn(C)cn3)cc(Cl)c2F)CC1 (centres unmarked) [Compound I-463]	< 10 µM
COc1cnc(Cl)c(S(=O)(=O)NNC(=O)c2cc(-c3cn(C)cn3)cc(Cl)c2F)c1 [Compound I-464]	< 10 µM
COc1ccc(S(=O)(=O)NNC(=O)c2cc(-c3cn(C)cn3)cc(Cl)c2F)c(F)c1O [Compound I-465]	< 10 µM
Cn1cnc(-c2cc(Cl)c(F)c(C(=O)NNS(=O)(=O)C[C@H]3CC[C@H](NCC(F)(F)F)CC3)c2)c1 [Compound I-466]	< 10 µM
COc1cnc(S(=O)(=O)NNC(=O)c2cc(-c3cn(C)cn3)cc(Cl)c2F)c(F)c1 [Compound I-468]	< 10 µM
Cn1cnc(-c2cc(Cl)c(F)c(C(=O)NNS(=O)(=O)CC3CN(C(=O)OC(C)(C)C)CCN3C(=O)OC(C)(C)C)c2)c1 (centres unmarked) [Compound I-469]	> 100 µM
CC(=O)NCc1c(-c2cn(C)cn2)cc(C(=O)NNS(=O)(=O)CC2CCCCC2)c(F)c1Cl [Compound I-470]	10 to 50 µM
Cn1cnc(-c2cc(Cl)c(F)c(C(=O)NNS(=O)(=O)CC3CNCCN3)c2)c1 (centres unmarked) [Compound I-472]	> 100 µM

same assay, conditions: Table 5

SMILES	IC50
Cc1c(-c2ccccc2)ccc(F)c1C(=O)NNS(=O)(=O)c1ccc(Cl)cc1 [Compound A-1]	10 to 50 µM
Cc1cccc(-c2cc(C)c(F)c(C(=O)NNS(=O)(=O)CC3CCN(C(=O)OC(C)(C)C)C3)c2)c1 (centres unmarked) [Compound A-2]	> 100 µM
Cc1cccc(-c2cc(C)c(F)c(C(=O)NNS(=O)(=O)CC3CCNC3)c2)c1 (centres unmarked) [Compound A-3]	> 100 µM
Cc1cccc(-c2cc(Cl)c(F)c(C(=O)NNS(=O)(=O)CC3CN(C(=O)OC(C)(C)C)CCO3)c2)c1 (centres unmarked) [Compound A-4]	≤ 10 µM
Cc1cccc(-c2cc(Cl)c(F)c(C(=O)NNS(=O)(=O)CC3CNCCO3)c2)c1 (centres unmarked) [Compound A-5]	10 to 50 µM
Cc1cccc(-c2cc(C)c(F)c(C(=O)NNS(=O)(=O)CC3CCCNC3)c2)c1 (centres unmarked) [Compound A-6]	> 100 µM
Cc1cccc(-c2cc(Cl)c(F)c(C(=O)NNS(=O)(=O)C[C@H]3CCCNC3)c2)c1 [Compound A-7]	> 100 µM
Cc1cccc(-c2cc(Cl)c(F)c(C(=O)NNS(=O)(=O)CC3CCCN(C)C3)c2)c1 (centres unmarked) [Compound A-8]	> 100 µM
CCN1CCCC(CS(=O)(=O)NNC(=O)c2cc(-c3cccc(C)c3)cc(Cl)c2F)C1 (centres unmarked) [Compound A-9]	> 100 µM
Cc1cccc(-c2cc(Cl)c(F)c(C(=O)NNS(=O)(=O)C[C@@H]3CCCNC3)c2)c1 [Compound A-10]	> 100 µM
Cc1cccc(-c2cc(Cl)c(F)c(C(=O)NNS(=O)(=O)CC3CN(C)CCO3)c2)c1 (centres unmarked) [Compound A-11]	≤ 10 µM
Cc1cccc(-c2cc(Cl)c(F)c(C(=O)NNS(=O)(=O)CCCN(C)Cc3ccccc3)c2)c1 [Compound A-18]	> 100 µM

target: KAT-5 (Homo sapiens (Human), UniProt Q92993); assay: KAT-5 biochemical inhibition assay (SAMDI mass spectrometry); details: not given
Sequence (Q92993 other isoform, or with tags, fused parts or gaps): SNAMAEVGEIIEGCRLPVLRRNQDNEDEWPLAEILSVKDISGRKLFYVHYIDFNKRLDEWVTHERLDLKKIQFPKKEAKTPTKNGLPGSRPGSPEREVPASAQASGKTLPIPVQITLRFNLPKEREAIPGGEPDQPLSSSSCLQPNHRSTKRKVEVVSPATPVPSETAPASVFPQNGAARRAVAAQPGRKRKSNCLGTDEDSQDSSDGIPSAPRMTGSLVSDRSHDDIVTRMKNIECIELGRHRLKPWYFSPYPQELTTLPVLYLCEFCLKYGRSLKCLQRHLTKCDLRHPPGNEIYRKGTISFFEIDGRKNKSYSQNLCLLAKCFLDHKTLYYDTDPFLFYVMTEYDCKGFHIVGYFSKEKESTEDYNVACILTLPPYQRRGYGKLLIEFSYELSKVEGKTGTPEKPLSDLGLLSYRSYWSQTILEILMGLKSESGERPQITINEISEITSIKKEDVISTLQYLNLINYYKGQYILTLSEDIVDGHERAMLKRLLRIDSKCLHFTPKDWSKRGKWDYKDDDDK
Method: as §1, with “KAT-5. Enzyme assay” for “KAT-6A. Enzyme assay”, “buffer containing KAT-5 enzyme (9” for “buffer containing KAT-6A enzyme (12.5”, “KAT-5 enzyme (9 nM final” for “KAT-6A enzyme (12.5 nM final”, “substrate and 0.5 μM acetyl” for “substrate and 1 μM acetyl”

SMILES	IC50
COc1ccc(S(=O)(=O)NNC(=O)c2cc(-c3cn(C)cn3)cc(Cl)c2F)c(F)c1OCc1ccccc1 [Compound I-462]	10 to 50 µM
COc1cnc(S(=O)(=O)NNC(=O)c2cc(-c3cn(C)cn3)cc(Cl)c2F)c(F)c1 [Compound I-468]	< 10 µM
Cn1cnc(-c2cc(Cl)c(F)c(C(=O)NNS(=O)(=O)CC3CN(C(=O)OC(C)(C)C)CCN3C(=O)OC(C)(C)C)c2)c1 (centres unmarked) [Compound I-469]	> 100 µM
CC(=O)NCc1c(-c2cn(C)cn2)cc(C(=O)NNS(=O)(=O)CC2CCCCC2)c(F)c1Cl [Compound I-470]	> 100 µM
Cn1cnc(-c2cc(Cl)c(F)c(C(=O)NNS(=O)(=O)CC3CNCCN3)c2)c1 (centres unmarked) [Compound I-472]	> 100 µM

same assay, conditions: Table 5

SMILES	IC50
Cc1cccc(-c2cc(Cl)c(F)c(C(=O)NNS(=O)(=O)CC3CN(C)CCO3)c2)c1 (centres unmarked) [Compound A-11]	≤ 10 µM
Cc1cccc(-c2cc(Cl)c(F)c(C(=O)NNS(=O)(=O)CCCN(C)Cc3ccccc3)c2)c1 [Compound A-18]	> 100 µM
